According to publication PMC9706920, “Aryloxypropanolamine targets amyloid aggregates and reverses Alzheimer-like phenotypes in Alzheimer mouse models” (Alzheimer's Research & Therapy, 2022):

Legend:
[1] = test system: APP/PS1 mice; test: 6E10 immunohistochemical staining of amyloid plaques in APP/PS1 mice; assay type: in vivo, mouse; settings: YIAD002-treated APP/PS1 mice vs vehicle
Experimental: To test whether YIAD002 could reduce amyloid plaques in another AD mouse model, APP/PS1 transgenic mice (n = 24) and wildtype mice (n = 5) were assessed at the age of 7.5 months. YIAD002 was dissolved in PBS (0.5% methylcellulose) at two different concentrations (10 and 30 mg/kg/day) and administrated daily to APP/PS1 mice (n = 8 for each group) via oral gavage for 8 weeks. As a control, vehicle solutions were orally administrated to littermate APP/PS1 mice (n = 8) and wildtype mice (n = 5).
Formalin-fixed APP/PS1 mice brains were infiltrated with paraffin using a tissue processor (LEICA ASP300S, Germany). Blocks of tissues were produced with a tissue embedding center and sectioned into thin slices (4 μm), which were mounted onto glass slides. To prepare for 6E10 staining, slides were deparaffinized, rehydrated, and blocked with 0.03% H2O2 to remove endogenous peroxidase. For antigen retrieval, slides were boiled in Tris/EDTA solution (pH 9.0) using a pressure cooker. Unspecific binding was blocked through incubation in 4% BSA at RT for 30 min. Slides were immunolabeled with anti-6E10 antibody (1:2000, Novus Biologicals NBP2-62566) at RT for 1 h and HRP-labeled secondary antibody (Dako K4003) for 30 min and subsequently stained with DAB (3,3′-Diaminobenzidine) and counterstained with Mayer’s hematoxylin. Stained slides were scanned using ZEISS Axio scan.Z1 microscope. Amyloid plaques were quantified using Image-J software (NIH).

[2] = biological target: T1, CYP 2C19 (Homo sapiens, UniProt P33261); test: CYP450 inhibition assay, 2C19; assay type: in vitro ADME; settings: YIAD002 10 μM, human liver microsomes; weak or no inhibition; read-out: CYP 2C19 inhibition, IC50 (inhibition criteria)
T1 construct: contained human liver microsomes (0.25 mg/ml); from tissue; host or cells: human liver microsomes
T1 sequence (P33261 whole entry): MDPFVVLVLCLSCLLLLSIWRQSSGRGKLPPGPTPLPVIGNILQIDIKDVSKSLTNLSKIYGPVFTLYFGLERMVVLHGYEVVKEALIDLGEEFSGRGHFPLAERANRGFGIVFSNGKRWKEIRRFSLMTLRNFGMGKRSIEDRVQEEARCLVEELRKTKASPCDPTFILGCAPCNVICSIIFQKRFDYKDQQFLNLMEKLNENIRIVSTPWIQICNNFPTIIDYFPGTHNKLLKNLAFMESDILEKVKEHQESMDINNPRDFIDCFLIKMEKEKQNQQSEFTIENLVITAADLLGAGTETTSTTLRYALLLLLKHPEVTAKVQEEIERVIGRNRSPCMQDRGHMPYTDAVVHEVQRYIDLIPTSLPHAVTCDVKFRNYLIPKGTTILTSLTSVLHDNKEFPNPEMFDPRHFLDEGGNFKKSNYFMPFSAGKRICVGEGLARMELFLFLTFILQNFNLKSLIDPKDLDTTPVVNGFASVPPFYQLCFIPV
Experimental: Incubation mixtures for Cytochrome P450s (CYPs) inhibition assay contained human liver microsomes (0.25 mg/ml), 0.1 M phosphate buffer (pH 7.4), 10 μM of YIAD002, and an enzyme substrate cocktail (phenacetin 50 μM, diclofenac 10 μM, S-mephenytoin 100 μM, dextromethorphan 5 μM, and midazolam 2.5 μM). The mixture was pre-incubated at 37°C for 5 min and 1 mM NAPDH was added to initiate reactions. After 15 min of incubation, acetonitrile with terfenadine was added to stop reactions and microsomal solutions were centrifuged at 14,000 rpm at 4°C for 5 min. For LC-MS/MS analysis, supernatants were injected on a Kinetex C18 column (2.1 × 100 mm, 2.6 μm particle size, Phenomenex, USA). The composition of the mobile phase was 0.1% formic acid in water (A) and 0.1% formic acid in acetonitrile (B).

For `CCC(C)(C)c1ccc(OCC(O)CN2CCCC2)c(C(C)(C)CC)c1.Cl` (stereo not drawn) [YIAD002, 1-(3-(2,4-Di-tert-pentylphenoxy)-2-hydroxypropyl)pyrrolidin-1-ium chloride], the “Number of plaques, cortex” value [1] was “significantly reduced”, the “Plaque size, hippocampus” value [1] was “significantly reduced” and the “Size of plaques, cortex” value [1] was “significantly reduced”. For the same compound, the “Area of 6E10-stained plaques, whole brain” value ([1]; dose not given) was “reduced”, the “Number of 6E10-stained plaques, whole brain” value ([1]; dose not given) was “reduced” and the IC50 [2] was over 10 µM.
